Data: patent US20250170237A1, “MURAMYL DIPEPTIDES AND PROCESS FOR PREPARATION THEREOF” (priority 2022, published 2025)

How the values were obtained:
OVA antigen = assay: IgG titer with OVA antigen (indirect ELISA, immunized mice); format: in vivo, BALB/c mice
Description: (§1) Adjuvanticity of 15b was evaluated using antigens (OVA, HBsAg, DENV and JEV) in BALB/c mice model—From the immunized mice retro-orbital sampling or retro-orbital blood was collected on 14th and 28th day before sacrifice. Serum was separated by centrifugation at 12,500 rpm for 5 min. Transferred to a clean centrifuge tube and store at −80 until used.
(§2) The plates were coated with antigen in carbonate buffer. Plates were incubated at 4° C. overnight. They were then washed 3 times with PBS/Tween, and non-specific binding sites were blocked by adding 200 μl of blocking solution. Plates were incubated at room temperature for 1 h. Then 3 times wash is done, diluted standards and samples to desired concentrations in blocking solution were added to the plates. Incubate at 37° C. for 1 h or at 4° C. overnight. Plates were washed 3 times with PBS/Tween. Avidin-Horseradish Peroxidase (Av-HRP) was diluted and added. Incubated at room temperature for 30 min. Plates were washed 3 times with PBS/Tween. OPD Substrate was added and plates were incubated at room temperature (4-30 min) for colour development. The colour reaction was stopped by adding 50 μl of stop solution. Optical density (OD) was read at 492 nm.

HBsAg antigen = assay: IgG titer with HBsAg antigen; format: in vivo, BALB/c mice
Description: as §1, §2

[1] = test system: cytokines IFN, IL-1, IL-4, IL-6, IL-10; assay: Post HBsAg immunization In vivo cytokine assay; parameters: species or system BALB/c mice
Description: (§3) ELISA was carried out by Bio Legend capture and detection antibodies. Briefly, 96-well plates were coated with capture antibody dissolved in coating buffer per well incubated overnight at 4° C. Wells were blocked with BSA for 1 h at RT. After blocking, 50 μL/well of serum was added and incubated for 3 h. After washing, Biotinylated secondary antibody was added along with enzyme. Plates were incubated for 1 h at RT. Then plates were washed and TMB substrate solution was added. The reaction was stopped after 30 min with a stopping solution. Absorbance was measured at 450 nm with a plate reader.

CD4, CD8 [2] = assay: Post HBsAg immunization Immunophenotyping; format: in vivo, BALB/c mice
Description: (§4) Staining for extracellular markers Staining was as per the manufacturer's protocol and run on a BD FACS Verse flow cytometer. Compensation was established using BD Biosciences compensation beads. Post-acquisition flow cytometry analysis was performed using FACS Suite software.

[3] = test system: CD4, CD8, CD19, CD80, CD 28; assay: Post Denv immunization Immunophenotyping; format: in vivo, BALB/c mice
Description: as §4

JEV antigen = assay: IgG titer with JEV antigen; format: in vivo, BALB/c mice
Description: as §1, §2

[4] = test system: cytokines IL-1, IL-2, IL-4, IFN, IL-6, IL-10, IL-12, TNF; assay: Post JEV immunization In vivo cytokine assay; parameters: species or system BALB/c mice
Description: as §3

splenocytes = assay: Post JEV immunization In vivo splenocyte proliferation assay; parameters: species or system BALB/c mice; conditions: UT = 100 (Table 15)
Description: Splenocytes were seeded into 96-well flat-bottom microtiter plates having 1×10^5 cells/well in […] complete RPMI-1640 medium. Plates were incubated at 37° C. with 5% CO2. After 48 h, […] MTT solution (5 mg/mL) was added to each well and left to incubate for next 4 h. Untransformed MTT ([…]) was removed from each well by pipetting. A total of […] of DMSO was added and the absorbance was evaluated in an ELISA reader at 630 nm on the multimode reader (Infinite 200 Pro, Switzerland) after 15 min

CD4, CD8 [5] = assay: Post JEV immunization Immunophenotyping; format: in vivo, BALB/c mice
Description: as §4

[6] = test system: antigens (OVA, HBsAg, DENV and JEV); assay: Serum anti-antigens (OVA, HBsAg, DENV and JEV) IgG titer, overall statements; format: in vivo, BALB/c mice; conditions: 15b against Ovalbumin, DEV, 15f against JEV
Description: as §1, §2

Which “IgG titer with OVA antigen” value (OVA antigen; dose 1 μg) does the source give for `C[C@H](NC(=O)[C@@H](C)O[C@H]1[C@H](O)[C@@H](CO)OC(O)[C@@H]1NC(=O)C1CC1)C(=O)N[C@H](CCC(=O)O)C(N)=O` (stereo partly drawn) [15b, (4R)-5-amino-4-((2S)-2-((2R)-2-(((3R,4R, 5S, 6R)-3-(cyclopropanecarboxamido)-2,5-dihydroxy-6-(hydroxymethyl)tetrahydro-2H-pyran-4-yl)oxy)propanamido)propanamido)-5-oxopentanoic acid] here?
The value was 1600-124000.

And the “IgG titer with OVA antigen” value (OVA antigen; dose 10 μg)?
Its value is 204800-416000.

And the “IgG titer with OVA antigen” value (OVA antigen; dose 100 μg)?
Its value is 115000-320000.

And the “IgG titer with HBsAg antigen” value (HBsAg antigen; dose 1 μg)?
The value was 51200-102400.

What about the “IgG titer with HBsAg antigen” value (HBsAg antigen; dose 10 μg) of the same compound?
The value was 102400-240000.

What about the IFN ([1]; dose 1 μg) of the same compound?
Its IFN is 80.6 pg/mL.

And the IFN ([1]; dose 10 μg)?
The IFN was 75.07 pg/mL.

And the IFN ([1]; dose 100 μg)?
The IFN was 68.6 pg/mL.

What about the CD4 (CD4, CD8 [2]; dose 1 μG) of the same compound?
The CD4 was 24.48-29.48.

And the CD8 (CD4, CD8 [2]; dose 1 μG)?
Its CD8 is 12.71-19.48.

What about the CD4 (CD4, CD8 [2]; dose 10 μG) of the same compound?
Its CD4 is 25.47-29.48.

What about the CD8 (CD4, CD8 [2]; dose 10 μG) of the same compound?
The CD8 was 12.67-18.54.

What about the CD4 ([3]; dose 1 μG) of the same compound?
Its CD4 is 36.26-41.8.

And the CD8 ([3]; dose 1 μG)?
Its CD8 is 22.26-29.48.

What about the CD19 ([3]; dose 1 μG) of the same compound?
Its CD19 is 30.57-35.48.

And the “CD 28” value ([3]; dose 1 μG)?
The value was 3.65-7.48.

And the CD80 ([3]; dose 1 μG)?
Its CD80 is 6.3-8.4.

And the CD4 ([3]; dose 10 μG)?
The CD4 was 38.74-43.84.

What about the CD8 ([3]; dose 10 μG) of the same compound?
Its CD8 is 22.92-27.84.

What about the CD19 ([3]; dose 10 μG) of the same compound?
The CD19 was 36.19-41.28.

And the “CD 28” value ([3]; dose 10 μG)?
Its value is 3.68-8.41.

And the CD80 ([3]; dose 10 μG)?
The CD80 was 6.11-11.4.

And the “IgG titer with JEV antigen” value (JEV antigen; dose 1 μg (Table 13))?
The value was 64000-128000.

What about the “IgG titer with JEV antigen” value (JEV antigen; dose 10 μg (Table 13)) of the same compound?
The value was 8000-16000.

What about the “IgG titer with JEV antigen” value (JEV antigen; dose 100 μg (Table 13)) of the same compound?
The value was 40000-80000.

What about the IFN ([4]; dose 1 μg (Table 14)) of the same compound?
Its IFN is 4.21 to 6.37 pg/mL.

What about the IL-2 ([4]; dose 1 μg (Table 14)) of the same compound?
The IL-2 was 13.77 to 19.81 pg/mL.

And the IL-6 ([4]; dose 1 μg (Table 14))?
Its IL-6 is 157.05 to 160.47 pg/mL.

What about the IL-10 ([4]; dose 1 μg (Table 14)) of the same compound?
Its IL-10 is 48 to 51.02 pg/mL.

What about the IFN ([4]; dose 10 μg (Table 14)) of the same compound?
The IFN was 11.03 to 13.05 pg/mL.

What about the IL-1 ([4]; dose 10 μg (Table 14)) of the same compound?
Its IL-1 is 61.9 to 67.25 pg/mL.

What about the IL-2 ([4]; dose 10 μg (Table 14)) of the same compound?
The IL-2 was 12.17 to 15.34 pg/mL.

What about the IL-6 ([4]; dose 10 μg (Table 14)) of the same compound?
Its IL-6 is 233.3 to 245.27 pg/mL.

What about the IL-10 ([4]; dose 10 μg (Table 14)) of the same compound?
Its IL-10 is 52.3 to 54.28 pg/mL.

What about the IFN ([4]; dose 100 μg (Table 14)) of the same compound?
The IFN was 3.06 to 6.48 pg/mL.

And the IL-1 ([4]; dose 100 μg (Table 14))?
Its IL-1 is 70.1 to 73.48 pg/mL.

And the IL-2 ([4]; dose 100 μg (Table 14))?
Its IL-2 is 23.97 to 27.45 pg/mL.

What about the IL-6 ([4]; dose 100 μg (Table 14)) of the same compound?
Its IL-6 is 279.85 to 281.47 pg/mL.

What about the IL-10 ([4]; dose 100 μg (Table 14)) of the same compound?
Its IL-10 is 57.5 to 59.48 pg/mL.

And the “Splenocyte proliferation, Con A” value (splenocytes; dose 1 μg)?
The value was 117.5-119.48.

What about the “Splenocyte proliferation, LPS” value (splenocytes; dose 1 μg) of the same compound?
The value was 118.2-120.01.

And the “Splenocyte proliferation, Normal” value (splenocytes; dose 1 μg)?
Its value is 118.6-120.48.

And the “Splenocyte proliferation, Restimulated” value (splenocytes; dose 1 μg)?
The value was 116.5-119.27.

What about the “Splenocyte proliferation, Con A” value (splenocytes; dose 10 μg) of the same compound?
The value was 124.55-126.85.

And the “Splenocyte proliferation, LPS” value (splenocytes; dose 10 μg)?
The value was 104.6-109.57.

And the “Splenocyte proliferation, Normal” value (splenocytes; dose 10 μg)?
The value was 111.38-115.78.

What about the “Splenocyte proliferation, Restimulated” value (splenocytes; dose 10 μg) of the same compound?
Its value is 114.2-117.24.

And the CD4 (CD4, CD8 [5]; dose 1 μG)?
Its CD4 is 39.75-42.58.

And the CD8 (CD4, CD8 [5]; dose 1 μG)?
The CD8 was 14.56-19.54.

And the CD4 (CD4, CD8 [5]; dose 10 μG)?
Its CD4 is 41.86-43.28.

And the CD8 (CD4, CD8 [5]; dose 10 μG)?
The CD8 was 14.78-17.25.

What about the “antibody titer, conclusion in words” value [6] of the same compound?
Its value is “significant antibody titer”.

What about the “% Hemolysis” value (In vitro Hemolysis assay; erythrocytes (red blood cells)) of the same compound?
The value was 2.302 ± 0.147%.

And the “toxicity and hemolysis, conclusion in words” value (In vitro Hemolysis assay; even at higher concentrations)?
The value was “non-toxic and non-hemolytic”.
